Experimental data as given in patent US20180185312A1, “METHOD AND COMPOSITION FOR PREVENTING OR TREATING IMMUNE ALLERGIC AIRWAY DISEASE” (Development Center for Biotechnology, priority 2016, published 2018).

Legend:
allergic rhinitis = assay: Allergic rhinitis animal model: frequency of sneezing and nasal rubbing; assay type: in vivo, Mice (BALB/c)
Description: Drug Efficacy Evaluation for Allergic Rhinitis in Animals 1. Species: Mice. 2. Strain: BALB/c. 8. Number of animals: The animals were divided into 5 groups, 4 to 5 animals per group, a total of 24 animals. [table] 1. The frequency of sneezing and nasal rubbing of the mice was observed once per week.

IL-6 = assay: Cytokines in nasal irrigation solution, allergic rhinitis animal model: IL-6; assay type: in vivo; settings: BALB/c mice, in comparison with the disease group, increasing amount of SAC
Method: (§1) 3. All animals were sacrificed at the end of the 4th week after being given the tested material, their nasal cavities were rinsed 3 times with 1 ml of physiological saline solution, then nasal irrigation solution was collected, centrifuged at 1000 rpm for 5 minutes at 4° C. to collect the supernatant solution, then store at −80° C. for preservation.

IL-9 = assay: Cytokines in nasal irrigation solution, allergic rhinitis animal model: IL-9; assay type: in vivo; settings: BALB/c mice, in comparison with the disease group, increasing amount of SAC
Method: as §1

[1] = Conversion of effective amount from mouse to human by conversion factor W; settings: converted from the mouse amount with conversion factor W 0.11
Method: For example, when being administered into a mouse, an effective amount of SAC is at least approximately 25 mg/kg; more preferably, an effective amount of SAC is approximately from 25 mg/kg to 100 mg/kg. When being administered into a person, an effective amount of SAC is at least approximately 2.75 mg/kg; more preferably, an effective amount is approximately from 2.75 mg/kg to 11 mg/kg. The conversion of an effective amount from animal to animal can be easily calculated by those skilled in the art based on known knowledge. For example, when an effective amount per kg for animal A is known and an effective amount per kg for animal B is to be calculated, look up table 1 first to find the conversion factor (W), then calculate as follows: An effective amount for animal B (mg/kg)=W×an effective amount for animal A (mg/kg) For example, in one of the examples of this disclosure, an effective amount of SAC being administered into a mouse was 25 mg/kg, which needs to be converted into an effective amount for a human. Animal A is a mouse and animal B is a human, the crossing point which is the conversion factor W is 0.11, therefore an effective amount for a human is 0.11×25 mg/kg=2.75 mg/kg. [table]

[2] = BALB/c mice, SAC 25, 50, 100 mpk p.o. twice per day, in comparison to the disease group

C=CCSC[C@H](N)C(=O)O [SAC, S-allyl-L-Cysteine]
frequency of nasal rubbing (allergic rhinitis; [2]): tended to decline
frequency of sneezing (allergic rhinitis; [2]): tended to decline
effective amount administered into a mouse (allergic rhinitis; mouse, in one of the examples): 25 mg/kg
level of IL-6 in nasal irrigation solution (IL-6): decreased
level of IL-9 in nasal irrigation solution (IL-9): decreased
effective amount for a human [1]: 2.75 mg/kg
